The source of these data is paper PMC8196563, “Trichilones A–E: New Limonoids from Trichilia adolfi” (Molecules, 2021).

Molecules are shown by their SMILES. Values after ≈ are worked out from the molar mass of the structure shown. Like-named read-outs stand apart in the source and are kept apart here.

The nature of series [1]: Cytotoxicity in murine macrophage cells (resazurin). The format is cell-based. Conditions: mouse, Raw 264.7 macrophage cells, Raw 264.7 murine macrophage cells, triplicate. On the procedure: The Raw 264.7 murine macrophage cell line was purchased from the American Type Culture Collection (ATCC-TIB71) (Manassas, VA, USA). The cells were maintained in DMEM-HG medium supplemented with 10% fetal bovine serum, 100 U/mL of penicillin and 100 μg/mL of streptomycin and sodium bicarbonate (2.2 g/L) in humidified atmosphere at 37 °C with 5% CO2. Samples were prepared as described above and added (in […]) at different concentrations (6.2–200 μg/mL). Medium blank, control drugs and cell growth controls were included to evaluate cell viability. The plates were incubated for 72 h at 37 °C with 5% CO2. After incubation for the indicated time, the cells were washed, after which 10 μL of Resazurin reagent (2.0 mM) was added. They were further incubated at 37 °C for 3 h in a humidified incubator. The IC50 values were assessed using a fluorometric reader (540 nm excitation, 590 nm emission) and Gen5 software. All assays were performed in triplicate.
On the technique in general: Alamar Blue is a resazurin reagent that responds to reducing activity.

For series [2], the system named is L. braziliensis promastigotes. Briefly: In vitro leishmanicidal activity against promastigotes. The class given is cell-based. As to conditions: Leishmania braziliensis, 72 h, read-out: Leishmanicidal activity L.b, IC50. On the procedure: (§1) Leishmanicidal activity was assayed according to Williams, with some modi-fication. Promastigotes of Leishmania: L. amazonensis, Clone 1, NHOM-BR-76-LTB-012 (Lma, donated by the Paul Sabatier Université, France) and L. braziliensis M2904 C192 RJA (M2904, donated by Dr. Jorge Arévalo from Universidad Peruana Cayetano Heredia, Peru). The strains were cultured in Schneider’s insect medium (pH 6.2), supplemented with 10% FBS and incubated in 96-microwell plates at 26 °C. Briefly, promastigotes in logarithmic phase of growth, at concentration of […], were exposed to samples dissolved in DMSO (1%) at different concentrations (3.1–100 μg/mL). Miltefosine (3.1–100 μg/mL, IDPS, France) was used as a positive control drug. The microwell plates were incubated for 72 h at 26 °C, the optical density of each well was measured and the IC50 values calculated. All assays were performed in triplicate.

In series [3] the test system is Leishmania amazonensis promastigotes. Briefly: In vitro leishmanicidal activity against promastigotes. The format is cell-based. Conditions: 72 h, read-out: Leishmanicidal activity L.a, IC50. On the procedure: as §1
The mark [4] stands for this setting: L. braziliensis M2904 C192 RJA promastigotes, 26 °C, triplicate.
The mark [5] stands for this setting: L. amazonensis Clone 1 NHOM-BR-76-LTB-012 promastigotes, 26 °C, triplicate.

Broadly, the IC50 is the concentration at which inhibition is half-maximal. Usually melting point stands for the temperature, or range, at which the solid turns liquid. Turning to `COC(=O)CC1C(C)(C)OC(=O)CC2OC3(C)C4C(=O)CC(c5ccoc5)C4(C)C(OC(C)=O)C(OC(=O)C(C)C)C3C21C` (stereo not drawn) [Compound 1, Trichilone A], the melting point was 143 °C. This compound showed an IC50 at 72 h in series [1] of 42 ± 0.9 µg/mL (≈ 68.1 µM). For the same compound, the half-inhibitory concentration (IC50) in series [2] (setting [4]) stood at 58 ± 18 µg/mL (≈ 94 µM).
In series [1], `CCC(C)C(=O)OC1C(OC(C)=O)C2(C)C(c3ccoc3)CC(=O)C2C2(C)OC3CC(=O)OC(C)(C)C(CC(=O)OC)C3(C)C12` (stereo not drawn) [Compound 2, Trichilone B] registered an IC50 at 72 h of 30 ± 10 µg/mL (≈ 47.6 µM). In addition, the IC50 in series [3] (setting [5]) was above 100 µg/mL; in series [2] (setting [4]), 70.1 ± 3 µg/mL (≈ 111 µM).
`CCC(C)C(=O)OC1C(OC(C)=O)C2(C)C(c3ccoc3)CC(=O)C2C2(C)OC3CC(=O)OC(C)(C)C(CC(=O)OC)C3(C)C12O` (stereo not drawn) [Compound 3, Trichilone C] returned a half-maximal inhibitory concentration (IC50) at 72 h in series [1] of 60 ± 17 µg/mL (≈ 92.8 µM). For the same compound, the half-maximal inhibitory concentration (IC50) in series [3] was above 100 µg/mL; in series [2] it was 87.2 ± 13 µg/mL (≈ 135 µM).
`COC(=O)CC1C(C)(C)OC(=O)C=C2OC3(C)C(C(OC(C)=O)C(OC(C)=O)C4(C)C(c5ccoc5)CC(=O)C34)C21C` (stereo not drawn) [Compound 4, Trichilone D]: the midpoint of inhibition in series [1], the IC50 at 72 h, lay at 94.1 ± 4.2 µg/mL (≈ 160 µM). The IC50 was above 100 µg/mL in series [3] (setting [5]) and 98.5 ± 1.5 µg/mL (≈ 168 µM) in series [2] (setting [4]).
The corresponding values for `COC(=O)CC1C(C)(C)OC(=O)C=C2OC3(C)C(C(OC(=O)C(C)C)C(OC(C)=O)C4(C)C(c5ccoc5)CC(=O)C34)C21C` (stereo not drawn) [Compound 5, Trichilone E] are 41.5 ± 24 µg/mL (≈ 67.5 µM), 92 ± 7 µg/mL (≈ 150 µM) and 68.1 ± 6 µg/mL (≈ 111 µM).
In turn, `CCCCCCCCCCCCCCCCOP(=O)([O-])OCC[N+](C)(C)C` [Miltefosine, reference compound] registered an IC50 at 72 h in series [1] of 21 ± 2 µg/mL (≈ 51.5 µM). Moreover, the half-inhibitory concentration (IC50) was 5 ± 0.2 µg/mL (≈ 12.3 µM) in series [3] (setting [5]) and 4.07 ± 0.5 µg/mL (≈ 9.99 µM) in series [2] (setting [4]).
